In US20120128705A1, “C6ORF167 PEPTIDES AND VACCINES CONTAINING THE SAME” (OncoTherapy Science, Inc., priority 2009, published 2012):
Ends that are not written are not given here.

Experiments:
peptide-pulsed A24LCL [1] = assay: IFN-gamma ELISPOT assay on CTLs induced with peptide (HLA-A*2402); assay type: cell-based, human; conditions: CTLs from HLA-A*2402 positive donor, 3 rounds of stimulation, day 21; vs control wells without peptide
Source text: Monocyte-derived dendritic cells (DCs) were used as antigen-presenting cells (APCs) to induce cytotoxic T lymphocyte (CTL) responses against peptides presented on human leukocyte antigen (HLA). DCs were generated in vitro as described elsewhere (Nakahara S et al., Cancer Res 2003 Jul. 15, 63(14): 4112-8). Specifically, peripheral blood mononuclear cells (PBMCs) isolated from a normal volunteer (HLA-A*2402 positive) by Ficoll-Plaque (Pharmacia) solution were separated by adherence to a plastic tissue culture dish (Becton Dickinson) so as to enrich them as the monocyte fraction. The monocyte-enriched population was cultured in the presence of 1,000 U/ml of granulocyte-macrophage colony-stimulating factor (GM-CSF) (R&D System) and 1,000 U/ml of interleukin (IL)-4 (R&D System) in AIM-V Medium (Invitrogen) containing 2% heat-inactivated autologous serum (AS). After 7 days of culture, the cytokine-induced DCs were pulsed with 20 micro-g/ml of each of the synthesized peptides in the presence of 3 micro-g/ml of beta 2-microglobulin for 3 hrs at 37 degrees C. in AIM-V Medium. The generated cells appeared to express DC-associated molecules, such as CD80, CD83, CD86 and HLA class II, on their cell surfaces (data not shown). These peptide-pulsed DCs were then inactivated by X-irradiation (20 Gy) and mixed at a 1:20 ratio with autologous CD8+ T cells, obtained by positive selection with CD8 positive Isolation Kit (Dynal). These cultures were set up in 48-well plates (Corning); each well contained 1.5×10^4 peptide-pulsed DCs, 3×10^5 CD8+ T cells and 10 ng/ml of IL-7 (R&D System) in 0.5 ml of AIM-V/2% AS medium. Three days later, these cultures were supplemented with IL-2 (CHIRON) to a final concentration of 20 IU/ml. On days 7 and 14, the T cells were further stimulated with the autologous peptide-pulsed DCs. The DCs were prepared each time by the same way described above. CTL was tested against peptide-pulsed A24LCL cells after the 3rd round of peptide stimulation on day 21 (Tanaka H et al., Br J Cancer 2001 Jan. 5, 84(1): 94-9; Umano Y et al., Br J Cancer 2001 Apr. 20, 84(8): 1052-7; Uchida N et al., Clin Cancer Res 2004 Dec. 15, 10(24): 8577-86; Suda T et al., Cancer Sci 2006 May, 97(5): 411-9; Watanabe T et al., Cancer Sci 2005 August, 96(8): 498-506).
(§1) To examine specific CTL activity, interferon (IFN)-gamma enzyme-linked immunospot (ELISPOT) assay and IFN-gamma enzyme-linked immunosorbent assay (ELISA) were performed. Specifically, peptide-pulsed A24LCL (1×10^4/well) was prepared as stimulator cells. Cultured cells in 48 wells were used as responder cells. IFN-gamma ELISPOT assay and IFN-gamma ELISA assay were performed under manufacture procedure.

peptide-pulsed A24LCL [2] = assay: IFN-gamma ELISA assay of CTL lines (HLA-A*2402); assay type: cell-based, human; conditions: target cells pulsed with corresponding peptide vs without peptide pulse
Method: CTLs were expanded in culture using the method similar to the one described by Riddell et al. (Walter E A et al., N Engl J Med 1995 Oct. 19, 333(16): 1038-44; Riddell S R et al., Nat Med 1996 February, 2(2): 216-23). A total of 5×10^4 CTLs were suspended in 25 ml of AIM-V/5% AS medium with 2 kinds of human B-lymphoblastoid cell lines, inactivated by Mitomycin C, in the presence of 40 ng/ml of anti-CD3 monoclonal antibody (Pharmingen). One day after initiating the cultures, 120 IU/ml of IL-2 were added to the cultures. The cultures were fed with fresh AIM-V/5% AS medium containing 30 IU/ml of IL-2 on days 5, 8 and 11 (Tanaka H et al., Br J Cancer 2001 Jan. 5, 84(1): 94-9; Umano Y et al., Br J Cancer 2001 Apr. 20, 84(8): 1052-7; Uchida N et al., Clin Cancer Res 2004 Dec. 15, 10(24): 8577-86; Suda T et al., Cancer Sci 2006 May, 97(5): 411-9; Watanabe T et al., Cancer Sci 2005 August, 96(8): 498-506).
as §1

[3] = tested on: COS7 cells transfected with C6orf167 and HLA-A*2402; assay: Specific CTL activity against target cells exogenously expressing C6orf167 and HLA-A*2402; assay type: cell-based, African green monkey; conditions: for Specific CTL activity against control COS7 cells: COS7 transfected with either full length C6orf167 or HLA-A*2402 alone; for Specific CTL activity against COS7 cells expressing both C6orf167 and HLA-A*2402: CTL lines raised by the peptide as effector cells
Source text: The cDNA encoding an open reading frame of target genes or HLA-A*2402 was amplified by PCR. The PCR-amplified product was cloned into pCAGGS vector. The plasmids were transfected into COS7, which is the target genes and HLA-A24-negative cell line, using lipofectamine 2000 (Invitrogen) according to the manufacturer's recommended procedures. After 2 days from transfection, the transfected cells were harvested with versene (Invitrogen) and used as the target cells (5×10^4 cells/well) for CTL activity assay.
The established CTL lines raised against these peptides were examined for their ability to recognize target cells that endogenously express C6orf167 and HLA-A*2402 molecule. Specific CTL activity against COS7 cells which transfected with both the full length of C6orf167 and HLA-A*2402 molecule gene (a specific model for the target cells that exogenously express C6orf167 and HLA-A*2402 gene) was tested using the CTL lines raised by corresponding peptide as the effecter cells. COS7 cells transfected with either full length of C6orf167 genes or HLA-A*2402 were prepared as controls.

peptide-pulsed A24LCL [4] = assay: IFN-gamma ELISA assay of CTL clones (HLA-A*2402); assay type: cell-based, human; conditions: clones by limiting dilution; target cells pulsed with peptide
Method: The dilutions were made to have 0.3, 1, and 3 CTLs/well in 96 round-bottomed micro titer plate (Nalge Nunc International). CTLs were cultured with 1×10^4 cells/well of 2 kinds of human B-lymphoblastoid cell lines, 30 ng/ml of anti-CD3 antibody, and 125 U/ml of IL-2 in a total of […] of AIM-V Medium containing 5% AS. 50 micro-1/well of IL-2 were added to the medium 10 days later so to reach a final concentration of 125 U/ml IL-2. CTL activity was tested on the 14th day, and CTL clones were expanded using the same method as described above (Uchida N et al., Clin Cancer Res 2004 Dec. 15, 10(24): 8577-86; Suda T et al., Cancer Sci 2006 May, 97(5): 411-9; Watanabe T et al., Cancer Sci 2005 August, 96(8): 498-506).
as §1

Question: With “IYIDgVQEVF (IYIDGVQEVF; not fully specified; printed as IYIDgVQEVF) [SEQ ID NO: 33]” as the substance, how does the “Peptide specific CTL activity: IFN-gamma production by ELISPOT” value (“Peptide specific CTL activity” below) (peptide-pulsed A24LCL [1]) read?
Answer: Its value is “potent IFN-gamma production”.

Question: And the “IFN-gamma production of CTL lines by ELISA” value (peptide-pulsed A24LCL [2])?
Answer: The value was “potent IFN-gamma production”.

Question: What about the “Specific CTL activity against control COS7 cells” value [3] of the same substance?
Answer: Its value is “no significant specific CTL activity”.

Question: And the “Specific CTL activity against COS7 cells expressing both C6orf167 and HLA-A*2402” value [3]?
Answer: Its value is “potent CTL activity”.

Question: RYYYQVYSI [SEQ ID NO: 9] was tested. Which “Peptide specific CTL activity” value (peptide-pulsed A24LCL [1]) did it give?
Answer: The value was “potent IFN-gamma production”.

Question: What about the “IFN-gamma production of CTL lines by ELISA” value (peptide-pulsed A24LCL [2]) of the same substance?
Answer: The value was “potent IFN-gamma production”.

Question: And the “IFN-gamma production of CTL clones by ELISA” value (peptide-pulsed A24LCL [4])?
Answer: Its value is “Potent IFN-gamma productions”.

Question: And the “Specific CTL activity against control COS7 cells” value [3]?
Answer: The value was “no significant specific CTL activity”.

Question: What about the “Specific CTL activity against COS7 cells expressing both C6orf167 and HLA-A*2402” value [3] of the same substance?
Answer: The value was “potent CTL activity”.

Question: Which results are given for MYLHCCLTL [SEQ ID NO: 4]?
Answer: Peptide specific CTL activity: IFN-gamma production by ELISPOT (peptide-pulsed A24LCL [1]): potent IFN-gamma production; IFN-gamma production of CTL lines by ELISA (peptide-pulsed A24LCL [2]): potent IFN-gamma production; IFN-gamma production of CTL clones by ELISA (peptide-pulsed A24LCL [4]): Potent IFN-gamma productions

Question: With NFFSLFLLL [SEQ ID NO: 16] as the substance, how does the “Peptide specific CTL activity” value (peptide-pulsed A24LCL [1]) read?
Answer: The value was “potent IFN-gamma production”.

Question: And the “IFN-gamma production of CTL lines by ELISA” value (peptide-pulsed A24LCL [2])?
Answer: Its value is “potent IFN-gamma production”.

Question: And the “IFN-gamma production of CTL clones by ELISA” value (peptide-pulsed A24LCL [4])?
Answer: The value was “Potent IFN-gamma productions”.

Question: How did the “Peptide specific CTL activity” value (peptide-pulsed A24LCL [1]) turn out when LVLEILYML [SEQ ID NO: 30] was run?
Answer: The value was “potent IFN-gamma production”.

Question: What about the “IFN-gamma production of CTL lines by ELISA” value (peptide-pulsed A24LCL [2]) of the same substance?
Answer: The value was “potent IFN-gamma production”.

Question: And the “IFN-gamma production of CTL clones by ELISA” value (peptide-pulsed A24LCL [4])?
Answer: Its value is “Potent IFN-gamma productions”.

Question: Which “Peptide specific CTL activity” value (peptide-pulsed A24LCL [1]) does the source give for LYIGHLSEL [SEQ ID NO: 2] here?
Answer: The value was “potent IFN-gamma production”.

Question: And the “IFN-gamma production of CTL lines by ELISA” value (peptide-pulsed A24LCL [2])?
Answer: Its value is “potent IFN-gamma production”.

Question: What about the “IFN-gamma production of CTL clones by ELISA” value (peptide-pulsed A24LCL [4]) of the same substance?
Answer: The value was “Potent IFN-gamma productions”.

Question: What about the “Specific CTL activity against control COS7 cells” value [3] of the same substance?
Answer: The value was “no significant specific CTL activity”.

Question: What about the “Specific CTL activity against COS7 cells expressing both C6orf167 and HLA-A*2402” value [3] of the same substance?
Answer: The value was “potent CTL activity”.

Question: How did the “Peptide specific CTL activity” value (peptide-pulsed A24LCL [1]) turn out when VYGHQFMNL [SEQ ID NO: 7] was run?
Answer: Its value is “potent IFN-gamma production”.

Question: And the “IFN-gamma production of CTL lines by ELISA” value (peptide-pulsed A24LCL [2])?
Answer: The value was “potent IFN-gamma production”.

Question: And the “IFN-gamma production of CTL clones by ELISA” value (peptide-pulsed A24LCL [4])?
Answer: The value was “Potent IFN-gamma productions”.

Question: And the “Specific CTL activity against control COS7 cells” value [3]?
Answer: Its value is “no significant specific CTL activity”.

Question: What about the “Specific CTL activity against COS7 cells expressing both C6orf167 and HLA-A*2402” value [3] of the same substance?
Answer: The value was “potent CTL activity”.
